Laboratory results reported in patent US7285564B2, “Substituted 4-amino-1-(pyridylmethyl)piperidine and related compounds” (Theravance, Inc., priority 2002, dated 2007).

Target: T1, hM3 muscarinic receptor subtype (Homo sapiens, UniProt P20309)
T1 construct: expressed in transfected cells; membranes prepared
Experiment: Radioligand binding assay, hM3 relative to hM2
Details: ratio of Ki values from radioligand displacement
Method: CHO (Chinese hamster ovary) cell lines stably expressing cloned human hM1, hM2, hM3 and hM4 muscarinic receptor subtypes, respectively, were grown to near confluency in medium consisting of HAM's F-12 supplemented with 10% FBS (Fetal Bovine Serum) and 250 μg/mL Geneticin. The cells were grown in a 5% CO2, 37° C. incubator and lifted with dPBS+2 mM EDTA. Cells were collected by 5 minute centrifugation at 650×g, and cell pellets were either stored frozen at −80° C. or membranes were prepared immediately. For membrane preparation, cell pellets were resuspended in lysis buffer and homogenized with a Polytron PT-2100 tissue disrupter (Kinematica AG; 20 seconds×2 bursts). Crude membranes were centrifuged at 40,000×g for 15 minutes at 4° C. […] Protein concentration of the membrane suspension was determined by the method of Lowry, O. et al., (1951) […]: 193, 265. […]
Radioligand binding assays were performed in 96-well microtiter plates in a total assay volume of 100 μL. […] Filter plates were rinsed three times with wash buffer (10 mM HEPES) to remove unbound radioactivity. […] The plates were then counted in a PerkinElmer Topcount liquid scintillation counter (PerkinElmer Inc., Wellesley, Mass.). Binding data were analyzed by nonlinear regression analysis with the GraphPad Prism Software package (GraphPad Software, Inc., San Diego, Calif.) using the one-site competition model. […]

T1 sequence (P20309 whole entry): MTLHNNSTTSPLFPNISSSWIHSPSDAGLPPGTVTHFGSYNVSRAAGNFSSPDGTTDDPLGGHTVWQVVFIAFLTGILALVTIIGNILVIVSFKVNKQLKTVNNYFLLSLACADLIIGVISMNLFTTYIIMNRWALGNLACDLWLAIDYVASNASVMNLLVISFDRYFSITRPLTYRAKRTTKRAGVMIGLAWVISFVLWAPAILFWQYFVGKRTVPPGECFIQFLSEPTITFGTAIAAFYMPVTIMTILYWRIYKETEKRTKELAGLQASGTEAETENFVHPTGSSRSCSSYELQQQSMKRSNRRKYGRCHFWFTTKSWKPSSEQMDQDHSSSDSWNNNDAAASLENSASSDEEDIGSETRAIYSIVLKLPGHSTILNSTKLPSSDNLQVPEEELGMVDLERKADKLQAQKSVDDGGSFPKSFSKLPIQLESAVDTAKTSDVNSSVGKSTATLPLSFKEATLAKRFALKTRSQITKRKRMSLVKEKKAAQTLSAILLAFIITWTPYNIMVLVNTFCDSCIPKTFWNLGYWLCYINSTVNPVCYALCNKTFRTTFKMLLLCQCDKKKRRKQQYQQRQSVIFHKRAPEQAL

hM3/hM2 ratio: greater than 40
Compound: COc1ccncc1CN1CCC(N(CCCCCCCN2CC[C@@H](C(C(N)=O)(c3ccccc3)c3ccccc3)C2)C(C)C)CC1 [Example 1]
